The source of these data is patent publication US11033539B2, “Compounds of formulas (VII), (VIII), (IX), (XI), (XII), (XIII), and (XIV) as muscarinic receptor 4(M4) antagonists for treating neurological diseases” (Neurocrine Biosciences, Inc., priority 2015, dated 2021).

For this test, the target named is human M4 receptor (Homo sapiens (Human), UniProt P08173). In words: Radioligand (tritiated N-methylscopolamine) binding assay, M4. The following applies: Ki against the M4 receptor; membranes from CHO cells expressing human M4; tritiated N-methylscopolamine 1.5 nM; read-out: Ki. The method, boiled down: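 Membranes from CHO cells expressing the receptor were incubated with 1.5 nM radioligand and twelve compound concentrations (10 μM to […]) for 90 min at 37 °C in 50 mM HEPES, 100 mM NaCl, 5 mM MgCl2, 1 mM EDTA, pH 7.4. Bound radioligand was collected by filtration and counted, and Ki was derived from inhibition.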
human M4 receptor, sequence (P08173 whole entry): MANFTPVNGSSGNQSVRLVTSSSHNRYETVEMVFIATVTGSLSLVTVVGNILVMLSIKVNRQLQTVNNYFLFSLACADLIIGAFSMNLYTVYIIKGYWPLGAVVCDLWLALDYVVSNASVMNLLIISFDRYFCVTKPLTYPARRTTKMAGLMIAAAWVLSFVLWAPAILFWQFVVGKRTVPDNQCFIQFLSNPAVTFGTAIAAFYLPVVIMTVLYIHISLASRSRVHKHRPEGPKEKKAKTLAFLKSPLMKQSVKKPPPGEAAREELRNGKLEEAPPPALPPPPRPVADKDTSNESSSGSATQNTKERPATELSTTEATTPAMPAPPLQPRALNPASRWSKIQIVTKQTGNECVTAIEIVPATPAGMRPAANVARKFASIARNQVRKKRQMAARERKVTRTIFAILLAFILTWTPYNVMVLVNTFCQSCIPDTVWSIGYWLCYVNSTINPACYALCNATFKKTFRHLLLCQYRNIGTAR

For the compound `O=C(NCCC1CCN(Cc2cccc(F)c2)CC1)c1ccc(OCc2ccccc2)cc1` [11-24, 4-(benzyloxy)-N-(2-{1-[(3-fluorophenyl)methyl]piperidin-4-yl}ethyl)benzamide], the inhibition constant Ki was in the range of 0.1 to 1 µM. Next, `N#Cc1ccc(N2CCC(C(=O)NCCC3CCN(Cc4ccccc4O)CC3)CC2)nc1` [11-25, 1-(5-cyanopyridin-2-yl)-N-(2-{1-[(2-hydroxyphenyl)methyl]piperidin-4-yl}ethyl)piperidine-4-carboxamide]: 0.1 to 1 µM; `N#Cc1ccc(N2CCC(C(=O)NCCC3CCN(Cc4ccccc4O)CC3)CC2)nc1` [11-26, 1-(5-cyanopyridin-2-yl)-N-(2-{1-[(2-hydroxyphenyl)methyl]piperidin-4-yl}ethyl)piperidine-4-carboxamide]: 0.1 to 1 µM; `O=C(NCCC1CCN(Cc2cccc3c2OCC3)CC1)C1CCN(c2ccc(OC(F)(F)F)cc2)CC1` [11-29, N-{2-[1-(2,3-dihydro-1-benzofuran-7-ylmethyl)piperidin-4-yl]ethyl}-1-[4-(trifluoromethoxy)phenyl]piperidine-4-carboxamide]: 0.1 to 1 µM. For `COc1cccc(CN2CCC(CCNC(=O)C3CCN(c4ccc(OC(F)(F)F)cc4)CC3)CC2)n1` [11-30, N-(2-{l-[(6-methoxypyridin-2-yl)methyl]piperidin-4-yl}ethyl)-1-[4-(trifluoromethoxy)phenyl]piperidine-4-carboxamide], the Ki lay in the range of 0.1 to 1 µM. Next, `O=C(OCCC1CCN(Cc2ccccc2)CC1)N1CCN(c2ccc(OC(F)(F)F)cc2)CC1` [12-1, 2-(1-benzylpiperidin-4-yl)ethyl 4-[4-(trifluoromethoxy)phenyl]piperazine-1-carboxylate]: 0.01 to 0.1 µM.

`N#Cc1cccc(N2CCN(C(=O)OCCC3CCN(Cc4ccccc4)CC3)CC2)c1` [12-2, 2-(1-benzylpiperidin-4-yl)ethyl 4-(3-cyanophenyl)piperazine-1-carboxylate]: the Ki was in the range of 0.1 to 1 µM. Next, `O=C(OCCC1CCN(Cc2ccccc2)CC1)N1CCN(c2ccc(F)cc2)CC1` [12-3, 2-(1-benzylpiperidin-4-yl)ethyl 4-(4-fluorophenyl)piperazine-1-carboxylate]: 0.1 to 1 µM; `O=C(OCCC1CCN(Cc2ccccc2)CC1)N1CCN(c2cccc(OC(F)(F)F)c2)CC1` [12-4, 2-(1-benzylpiperidin-4-yl)ethyl 4-[3-(trifluoromethoxy)phenyl]piperazine-1-carboxylate]: 0.01 to 0.1 µM.

Consider `N#Cc1cccc(N2CCC(NC(=O)OCCC3CCN(Cc4ccccc4)CC3)CC2)c1` [12-5, 2-(1-benzylpiperidin-4-yl)ethyl N-[1-(3-cyanophenyl)piperidin-4-yl]carbamate], for which the Ki is 0.1 to 1 µM. In the case of `O=C(NC1CCN(c2ccc(F)cc2)CC1)OCCC1CCN(Cc2ccccc2)CC1` [12-6, 2-(1-benzylpiperidin-4-yl)ethyl N-[1-(4-fluorophenyl)piperidin-4-yl]carbamate], the Ki was 0.1 to 1 µM. Consider `O=C(OCCC1CCN(Cc2ccccc2)CC1)N1CCC(O)(c2ccccc2)CC1` [12-7, 2-(1-benzylpiperidin-4-yl)ethyl 4-hydroxy-4-phenylpiperidine-1-carboxylate], for which the inhibition constant (Ki) was 0.1 to 1 µM. For the compound `O=C(OCCC1CCN(Cc2ccccc2)CC1)N1CCC(c2ccccc2)CC1` [12-8, 2-(1-benzylpiperidin-4-yl)ethyl 4-phenylpiperidine-1-carboxylate], the Ki fell in the range of 0.1 to 1 µM.

As for `N#Cc1cc(F)cc(N2CCN(C(=O)OCCC3CCN(Cc4ccccc4)CC3)CC2)c1` [12-9, 2-(1-benzylpiperidin-4-yl)ethyl 4-(3-cyano-5-fluorophenyl)piperazine-1-carboxylate], the Ki is 0.1 to 1 µM. In the case of `N#Cc1cc(N2CCN(C(=O)OCCC3CCN(Cc4ccccc4)CC3)CC2)ccc1F` [12-10, 2-(1-benzylpiperidin-4-yl)ethyl 4-(3-cyano-4-fluorophenyl)piperazine-1-carboxylate], the Ki lay within 0.1 to 1 µM. To `O=C(NC1CCN(c2ccc(OC(F)(F)F)cc2)CC1)OCCC1CCN(Cc2ccccc2)CC1` [12-11, 2-(1-benzylpiperidin-4-yl)ethyl N-{1-[4-(trifluoromethoxy)phenyl]piperidin-4-yl}carbamate] belongs 0.01 to 0.1 µM; to `O=C(OCCC1CCN(Cc2ccccc2)CC1)N1CCN(c2cc(F)c(F)c(F)c2)CC1` [12-12, 2-(1-benzylpiperidin-4-yl)ethyl 4-(3,4,5-trifluorophenyl)piperazine-1-carboxylate], 0.01 to 0.1 µM. Next, `Cc1c(C(=O)NCCC2CCN(Cc3ccccc3)CC2)cnc2cc(-c3ccccc3)nn12` [17-2, N-[2-(1-benzylpiperidin-4-yl)ethyl]-7-methyl-2-phenylpyrazolo[1,5-a]pyrimidine-6-carboxamide]: 0.1 to 1 µM.

`Cc1c(C(=O)NCCC2CCN(Cc3ccccc3)CC2)cnc2cc(-c3ccc(Cl)cc3)nn12` [17-4, N-[2-(1-benzylpiperidin-4-yl)ethyl]-2-(4-chlorophenyl)-7-methylpyrazolo[1,5-a]pyrimidine-6-carboxamide]: the Ki was 0.01 to 0.1 µM. To `Cc1c(C(=O)NCCC2CCN(Cc3ccccc3)CC2)cnc2cc(-c3cccs3)nn12` [17-7, N-[2-(1-benzylpiperidin-4-yl)ethyl]-7-methyl-2-(thiophen-2-yl)pyrazolo[1,5-a]pyrimidine-6-carboxamide] belongs 0.1 to 1 µM; to `Cc1c(C(=O)NCCC2CCN(Cc3ccccc3)CC2)cnc2cc(-c3ccc(C(F)(F)F)cc3)nn12` [17-8, N-[2-(1-benzylpiperidin-4-yl)ethyl]-7-methyl-2-[4-(trifluoromethyl)phenyl]pyrazolo[1,5-a]pyrimidine-6-carboxamide], 0.01 to 0.1 µM.

Regarding `Cc1c(C(=O)NCCC2CCN(Cc3ccccc3)CC2)cnc2cc(-c3ccccn3)nn12` [18-2, N-[2-(1-benzylpiperidin-4-yl)ethyl]-7-methyl-2-(pyridin-2-yl)pyrazolo[1,5-a]pyrimidine-6-carboxamide], the Ki is 0.1 to 1 µM. With `Cc1c(C(=O)NCCC2CCN(Cc3ccccc3)CC2)cnc2cc(-c3ccc(C#N)cc3)nn12` [18-3], the Ki lay in the range of 0.1 to 1 µM. Next, `Cc1c(C(=O)NCCC2CCN(Cc3ccccc3)CC2)cnc2cc(-c3cccc(F)c3)nn12` [18-6]: 0.01 to 0.1 µM; `Cc1c(C(=O)NCCC2CCN(Cc3ccccc3)CC2)cnc2cc(-c3cccc(F)c3F)nn12` [18-7]: 0.01 to 0.1 µM; `Cc1c(C(=O)NCCC2CCN(Cc3ccccc3)CC2)cnc2cc(-c3cccc(C#N)c3)nn12` [18-8]: 0.01 to 0.1 µM.

Consider `COc1ccccc1-c1cc2ncc(C(=O)NCCC3CCN(Cc4ccccc4)CC3)c(C)n2n1` [18-9], for which the Ki is 0.01 to 0.1 µM.

For the compound `Cc1c(C(=O)NCCC2CCN(Cc3ccccc3)CC2)cnc2cc(-c3cc(F)ccc3F)nn12` [18-10], the Ki fell in the range of 0.01 to 0.1 µM. Next, `Cc1c(C(=O)NCCC2CCN(Cc3ccccc3)CC2)cnc2cc(-c3ccccc3C(F)(F)F)nn12` [18-11]: 0.01 to 0.1 µM; `Cc1c(C(=O)NCCC2CCN(Cc3ccccc3)CC2)cnc2cc(-c3ccc(C#N)c(F)c3)nn12` [18-12]: 0.01 to 0.1 µM; `Cc1c(C(=O)NCCC2CCN(Cc3ccccc3)CC2)cnc2cc(-c3ccc(OC(F)(F)F)cc3)nn12` [18-13]: 0.01 to 0.1 µM.

Consider `COc1ncccc1-c1cc2ncc(C(=O)NCCC3CCN(Cc4ccccc4)CC3)c(C)n2n1` [18-14], for which the Ki was 0.01 to 0.1 µM. Take `Cc1c(C(=O)NCCC2CCN(Cc3ccccc3)CC2)cnc2cc(-c3ccc(F)nc3)nn12` [18-15]: the Ki lay in the range of 0.1 to 1 µM.

For `Cc1c(C(=O)NCCC2CCN(Cc3ccccc3)CC2)cnc2cc(-c3cccnc3F)nn12` [18-18], the Ki lay in the range of 0.1 to 1 µM.

For the compound `COc1cc(C)c(-c2cc3ncc(C(=O)NCCC4CCN(Cc5ccccc5)CC4)c(C)n3n2)cn1` [18-19], the Ki fell in the range of 0.1 to 1 µM. For `Cc1c(C(=O)NCCC2CCN(Cc3ccccc3)CC2)cnc2cc(-c3ccnc(F)c3)nn12` [18-20], the Ki was in the range of 0.01 to 0.1 µM. With `Cc1c(C(=O)NCCC2CCN(Cc3cccnc3)CC2)cnc2cc(-c3cccc(C(F)(F)F)c3)nn12` [19-1, 7-methyl-N-{2-[1-(pyridin-3-ylmethyl)piperidin-4-yl]ethyl}-2-[3-(trifluoromethyl)phenyl]pyrazolo[1,5-a]pyrimidine-6-carboxamide], the Ki was 0.1 to 1 µM.

Turning to `Cc1c(C(=O)NCCC2CCN(Cc3cccc4c3OCCO4)CC2)cnc2cc(-c3ccccc3)nn12` [19-2], the Ki fell in the range of 0.01 to 0.1 µM. Next, `Cc1c(C(=O)NCCC2CCN(CC3CCCCC3)CC2)cnc2cc(-c3cccc(C(F)(F)F)c3)nn12` [19-3]: 0.1 to 1 µM; `Cc1c(C(=O)NCCC2CCN(Cc3ccccc3O)CC2)cnc2cc(-c3ccccc3)nn12` [19-4]: 0.1 to 1 µM; `Cc1c(C(=O)NCCC2CCN(Cc3ccncc3)CC2)cnc2cc(-c3cccc(C(F)(F)F)c3)nn12` [19-5]: 0.1 to 1 µM.

Regarding `Cc1c(C(=O)NCCC2CCN(Cc3ccccn3)CC2)cnc2cc(-c3cccc(C(F)(F)F)c3)nn12` [19-6], the Ki lay within 0.1 to 1 µM.

With `COc1cccc(CN2CCC(CCNC(=O)c3cnc4cc(-c5ccccc5)nn4c3C)CC2)c1` [19-7], the Ki fell in the range of 0.1 to 1 µM.

With `Cc1c(C(=O)NCCC2CCN(Cc3ccc(O)cc3)CC2)cnc2cc(-c3ccccc3)nn12` [19-8], the Ki lay in the range of 0.1 to 1 µM. Next, `C[C@H]1CN(c2ncc(C#N)cn2)CCC1C(=O)NCCC1CCN(Cc2ccccc2)CC1` (stereo partly drawn) [20-1, (3R)-N-[2-(1-benzylpiperidin-4-yl)ethyl]-1-(5-cyanopyrimidin-2-yl)-3-methylpiperidine-4-carboxamide]: 0.01 to 0.1 µM; `C[C@@H]1CN(c2ncc(C#N)cn2)C[C@H](C)N1C(=O)NCCC1CCN(CC2CCCCC2)CC1` [21-1, (2R,6S)-4-(5-cyanopyrimidin-2-yl)-N-{2-[1-(cyclohexylmethyl)piperidin-4-yl]ethyl}-2,6-dimethylpiperazine-1-carboxamide]: 0.01 to 0.1 µM; `C[C@@H]1CN(c2ncc(C#N)cn2)C[C@H](C)N1C(=O)NCCC1CCN(Cc2ccccn2)CC1` [21-3]: 0.1 to 1 µM.

The Ki is a measure of affinity in units of concentration, obtained from inhibition or displacement.
